Each block holds one molecule with its values, some of them ahead of it. Calls of active or inactive are those of the source. The calls are words filed in the database; no cut-off is given here. Square brackets hold non-standard residues; d marks the D form. Peptide text beside a SMILES is read from it. * marks the point of attachment. Nle = CCCC[C@H](N)C(=O)O; Cbz = O=C(OCc1ccccc1)*
Tests used:
[1] = target: T1, Ubiquitin carboxyl-terminal hydrolase 5 (Homo sapiens) (UniProt P45974); assay: Inhibition of human USP5 using Ub4 as substrate at 50 uM after 10 mins by SDS-PAGE analysis
T1 sequence (whole entry): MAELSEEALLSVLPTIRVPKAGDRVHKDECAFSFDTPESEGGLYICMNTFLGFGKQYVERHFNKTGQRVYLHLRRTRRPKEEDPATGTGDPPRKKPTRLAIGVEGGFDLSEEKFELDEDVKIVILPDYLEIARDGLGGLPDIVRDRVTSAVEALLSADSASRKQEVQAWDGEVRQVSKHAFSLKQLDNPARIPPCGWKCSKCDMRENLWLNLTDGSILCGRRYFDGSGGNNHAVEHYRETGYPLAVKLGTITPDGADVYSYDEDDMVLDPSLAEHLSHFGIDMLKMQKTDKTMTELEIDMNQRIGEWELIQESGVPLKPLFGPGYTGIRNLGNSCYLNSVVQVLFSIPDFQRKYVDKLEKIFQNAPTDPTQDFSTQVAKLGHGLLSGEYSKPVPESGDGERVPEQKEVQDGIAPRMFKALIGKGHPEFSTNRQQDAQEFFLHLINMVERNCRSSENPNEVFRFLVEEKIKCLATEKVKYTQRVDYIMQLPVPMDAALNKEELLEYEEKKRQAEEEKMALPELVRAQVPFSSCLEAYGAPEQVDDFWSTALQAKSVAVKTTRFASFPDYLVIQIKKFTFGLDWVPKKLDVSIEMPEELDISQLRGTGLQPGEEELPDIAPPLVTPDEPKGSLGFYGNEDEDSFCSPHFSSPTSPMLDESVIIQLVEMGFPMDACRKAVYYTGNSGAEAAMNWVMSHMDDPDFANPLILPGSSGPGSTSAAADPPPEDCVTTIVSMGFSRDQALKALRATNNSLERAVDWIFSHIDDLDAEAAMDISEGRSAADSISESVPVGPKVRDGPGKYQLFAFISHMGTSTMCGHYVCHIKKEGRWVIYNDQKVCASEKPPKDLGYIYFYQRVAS

[2] = target: T2, Ubiquitin carboxyl-terminal hydrolase isozyme L1 (Homo sapiens, UniProt P09936); assay: Inhibition of UCH-L1 in human Z138 cells after 1 hr by immunoblotting analysis; format: cell-based
T2 sequence (P09936 whole entry): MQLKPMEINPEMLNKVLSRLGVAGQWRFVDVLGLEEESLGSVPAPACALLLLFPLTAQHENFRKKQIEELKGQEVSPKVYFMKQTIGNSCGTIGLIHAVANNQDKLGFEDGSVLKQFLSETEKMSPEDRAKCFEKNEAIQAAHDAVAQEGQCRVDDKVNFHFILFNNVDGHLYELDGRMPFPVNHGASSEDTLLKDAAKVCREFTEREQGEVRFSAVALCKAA

[3] = target: Ubiquitin carboxyl-terminal hydrolase 9X (Homo sapiens, UniProt Q93008); assay: Inhibition of USP9x in human Z138 cells after 1 hr by immunoblotting analysis; format: cell-based
[4] = target: T3, Ubiquitin carboxyl-terminal hydrolase 5 (Homo sapiens, UniProt P45974); assay: Inhibition of USP5 in human Z138 cells after 1 hr by immunoblotting analysis; format: cell-based
T3 sequence (P45974 whole entry): T1 sequence (whole entry)

[5] = target: T1, Ubiquitin carboxyl-terminal hydrolase 5 (Homo sapiens); assay: Inhibition of human USP5 using Ub-AMC as substrate at 1 to 20 uM after 10 mins by fluorometric analysis
[6] = target: T1, Ubiquitin carboxyl-terminal hydrolase 5 (Homo sapiens); assay: Inhibition of wild type human USP5 expressed in Escherichia coli BL21(DE3) using K48-linked tetraubiquitin as substrate assessed as substrate hydrolysis at 20 uM after 15 mins by SDS-PAGE analysis
[7] = target: T1, Ubiquitin carboxyl-terminal hydrolase 5 (Homo sapiens); assay: Competitive binding affinity to human recombinant USP5 after 1 hr by SDS-PAGE analysis in presence of biotin-DMT
[8] = target: Ubiquitin carboxyl-terminal hydrolase isozyme L1 (Homo sapiens) (UniProt P09936); assay: Inhibition of human UCH-L1 using Ub-AMC as substrate at 1 to 20 uM after 10 mins by fluorometric analysis
[9] = target: T4, Ubiquitin carboxyl-terminal hydrolase 4 (Homo sapiens) (UniProt Q13107); assay: Inhibition of human USP4 using Ub-AMC as substrate at 1 to 20 uM after 10 mins by fluorometric analysis
T4 sequence (whole entry): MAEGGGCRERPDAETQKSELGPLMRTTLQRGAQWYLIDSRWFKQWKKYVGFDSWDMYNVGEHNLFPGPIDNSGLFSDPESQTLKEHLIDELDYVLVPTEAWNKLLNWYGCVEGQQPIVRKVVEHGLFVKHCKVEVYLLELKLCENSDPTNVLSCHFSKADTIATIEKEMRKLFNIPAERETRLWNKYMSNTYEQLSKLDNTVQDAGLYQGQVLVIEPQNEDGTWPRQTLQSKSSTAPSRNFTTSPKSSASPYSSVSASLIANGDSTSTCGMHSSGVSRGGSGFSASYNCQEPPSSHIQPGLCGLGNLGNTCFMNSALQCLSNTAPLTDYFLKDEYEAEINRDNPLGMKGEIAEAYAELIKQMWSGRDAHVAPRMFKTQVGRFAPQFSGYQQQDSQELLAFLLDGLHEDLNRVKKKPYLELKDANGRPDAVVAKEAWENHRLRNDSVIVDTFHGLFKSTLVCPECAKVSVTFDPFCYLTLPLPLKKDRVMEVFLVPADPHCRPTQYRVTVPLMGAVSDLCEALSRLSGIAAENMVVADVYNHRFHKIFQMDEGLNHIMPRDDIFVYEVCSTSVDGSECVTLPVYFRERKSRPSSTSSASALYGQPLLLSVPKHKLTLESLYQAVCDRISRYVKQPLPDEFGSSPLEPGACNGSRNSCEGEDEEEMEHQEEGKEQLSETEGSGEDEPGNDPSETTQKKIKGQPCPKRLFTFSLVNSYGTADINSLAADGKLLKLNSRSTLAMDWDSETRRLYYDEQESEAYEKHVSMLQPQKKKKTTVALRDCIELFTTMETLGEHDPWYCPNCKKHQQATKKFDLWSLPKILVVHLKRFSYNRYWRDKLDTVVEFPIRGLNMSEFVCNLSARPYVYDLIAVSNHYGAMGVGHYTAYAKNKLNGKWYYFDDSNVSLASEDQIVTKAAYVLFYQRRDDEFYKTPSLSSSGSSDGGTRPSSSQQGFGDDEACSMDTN

[10] = target: T1, Ubiquitin carboxyl-terminal hydrolase 5 (Homo sapiens); assay: Binding affinity to human recombinant USP5 by SDS-PAGE analysis
[11] = target: T4, Ubiquitin carboxyl-terminal hydrolase 4 (Homo sapiens); assay: Binding affinity to human USP4 after 1 hr by SDS-PAGE analysis
[12] = target: Ubiquitin carboxyl-terminal hydrolase isozyme L1 (Homo sapiens) (UniProt P09936); assay: Binding affinity to human UCH-L1 after 1 hr by SDS-PAGE analysis
RBL-2H3 = assay: Binding affinity to USP5 in rat RBL2H3 cell extracts at 1 to 100 uM by SDS-PAGE analysis; format: cell-free
[13] = target: T1, Ubiquitin carboxyl-terminal hydrolase 5 (Homo sapiens); assay: Inhibition of wild type human USP5 expressed in Escherichia coli BL21(DE3) using K48-linked tetraubiquitin as substrate assessed as substrate hydrolysis at 5 to 50 uM after 15 mins by SDS-PAGE analysis

Ubiquitin carboxyl-terminal hydrolase 9X, sequence (Q93008 whole entry): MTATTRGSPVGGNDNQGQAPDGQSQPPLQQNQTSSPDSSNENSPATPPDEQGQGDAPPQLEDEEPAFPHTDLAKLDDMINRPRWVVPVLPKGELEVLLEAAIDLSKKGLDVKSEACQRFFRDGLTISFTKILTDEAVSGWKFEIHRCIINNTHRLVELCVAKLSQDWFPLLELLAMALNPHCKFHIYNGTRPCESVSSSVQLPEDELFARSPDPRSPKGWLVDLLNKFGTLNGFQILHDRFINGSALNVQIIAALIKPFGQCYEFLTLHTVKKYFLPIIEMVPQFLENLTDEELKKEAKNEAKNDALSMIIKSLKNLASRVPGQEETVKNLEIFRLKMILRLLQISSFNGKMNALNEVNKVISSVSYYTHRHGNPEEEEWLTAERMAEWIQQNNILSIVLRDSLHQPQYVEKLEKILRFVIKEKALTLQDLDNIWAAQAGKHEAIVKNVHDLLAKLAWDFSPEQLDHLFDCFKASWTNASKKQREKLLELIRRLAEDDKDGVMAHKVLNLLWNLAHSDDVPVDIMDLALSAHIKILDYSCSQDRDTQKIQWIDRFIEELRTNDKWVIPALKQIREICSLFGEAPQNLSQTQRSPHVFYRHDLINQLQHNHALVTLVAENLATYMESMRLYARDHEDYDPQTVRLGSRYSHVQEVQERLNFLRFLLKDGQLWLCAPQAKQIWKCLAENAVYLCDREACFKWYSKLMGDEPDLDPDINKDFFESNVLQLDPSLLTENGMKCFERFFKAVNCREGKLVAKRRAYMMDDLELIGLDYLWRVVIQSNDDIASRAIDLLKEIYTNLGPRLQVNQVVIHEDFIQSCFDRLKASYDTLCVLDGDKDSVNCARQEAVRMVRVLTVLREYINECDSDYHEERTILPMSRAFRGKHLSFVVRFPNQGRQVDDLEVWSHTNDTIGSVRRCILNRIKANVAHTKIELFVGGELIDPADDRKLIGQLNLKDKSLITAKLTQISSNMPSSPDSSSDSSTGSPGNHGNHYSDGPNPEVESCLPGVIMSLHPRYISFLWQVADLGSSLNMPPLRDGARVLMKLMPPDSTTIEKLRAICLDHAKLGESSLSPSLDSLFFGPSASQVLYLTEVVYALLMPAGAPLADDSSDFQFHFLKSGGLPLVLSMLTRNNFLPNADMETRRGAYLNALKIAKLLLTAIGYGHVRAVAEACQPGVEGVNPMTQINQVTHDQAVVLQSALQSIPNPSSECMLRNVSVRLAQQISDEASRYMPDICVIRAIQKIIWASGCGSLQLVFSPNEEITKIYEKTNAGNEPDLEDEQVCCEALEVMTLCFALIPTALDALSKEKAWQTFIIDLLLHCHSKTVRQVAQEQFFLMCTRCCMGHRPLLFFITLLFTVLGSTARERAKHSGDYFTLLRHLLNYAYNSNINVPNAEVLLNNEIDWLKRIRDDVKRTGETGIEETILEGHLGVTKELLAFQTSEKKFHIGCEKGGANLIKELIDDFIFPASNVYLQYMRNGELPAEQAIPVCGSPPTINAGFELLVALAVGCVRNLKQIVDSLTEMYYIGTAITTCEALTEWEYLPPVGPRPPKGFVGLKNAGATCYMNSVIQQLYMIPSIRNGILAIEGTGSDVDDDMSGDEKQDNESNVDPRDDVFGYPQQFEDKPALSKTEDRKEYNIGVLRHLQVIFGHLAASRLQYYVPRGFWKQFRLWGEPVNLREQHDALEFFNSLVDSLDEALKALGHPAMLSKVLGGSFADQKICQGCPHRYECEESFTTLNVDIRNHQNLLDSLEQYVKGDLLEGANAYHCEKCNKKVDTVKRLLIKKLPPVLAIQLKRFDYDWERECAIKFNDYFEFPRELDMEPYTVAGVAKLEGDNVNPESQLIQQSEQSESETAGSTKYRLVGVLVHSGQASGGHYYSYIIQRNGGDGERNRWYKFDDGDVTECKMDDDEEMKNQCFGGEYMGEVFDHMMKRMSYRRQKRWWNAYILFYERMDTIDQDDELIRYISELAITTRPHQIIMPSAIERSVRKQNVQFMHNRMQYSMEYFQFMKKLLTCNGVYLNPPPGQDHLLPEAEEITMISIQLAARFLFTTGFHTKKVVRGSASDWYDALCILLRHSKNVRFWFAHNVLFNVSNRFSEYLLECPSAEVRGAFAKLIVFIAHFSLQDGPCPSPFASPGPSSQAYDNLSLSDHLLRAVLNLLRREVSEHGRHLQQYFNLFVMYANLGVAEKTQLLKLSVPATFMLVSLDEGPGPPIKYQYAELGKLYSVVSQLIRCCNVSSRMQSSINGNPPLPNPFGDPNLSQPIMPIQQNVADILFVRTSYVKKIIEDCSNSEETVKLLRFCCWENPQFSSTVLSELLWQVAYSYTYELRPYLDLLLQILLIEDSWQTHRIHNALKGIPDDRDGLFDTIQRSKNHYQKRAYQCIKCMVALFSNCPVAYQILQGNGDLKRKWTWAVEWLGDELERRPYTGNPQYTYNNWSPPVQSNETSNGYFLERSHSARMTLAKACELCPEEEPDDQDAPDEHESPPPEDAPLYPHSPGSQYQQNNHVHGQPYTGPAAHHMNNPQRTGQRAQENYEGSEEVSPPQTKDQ

inhibition [1]: inactive
Compound: CC(C)C[C@H](NC(=O)OCc1ccccc1)C(=O)N[C@H](C=O)Cc1ccccc1 (Cbz-Leu-Phe-aldehyde)

IC50 [2]: 3 µM
IC50 [3]: 3 µM
IC50 [4]: 3 µM
Compound: CCC[C@H](NC(=O)/C(C#N)=C/c1cccc(Br)n1)c1ccccc1

inhibition [1]: inactive
Compound: COc1ccc(C(=O)ONC(=O)CNC(=O)[C@H](Cc2ccccc2)NC(=O)OCc2ccccc2)cc1

Activity [10]: inactive
Compound: O=C(CCCC[C@@H]1SC[C@@H]2NC(=O)N[C@@H]21)NCCCCCCn1cc(COc2ccccc2)nn1

Continued, molecule first:

Compound: Cc1c(C)c(-c2ccc(O)cc2)c(O)c(O)c1-c1ccc(O)cc1
inhibition [5]: Active
inhibition [6]: Active
Activity [7]: Active
inhibition [8]: Active
inhibition [9]: Active

Compound: CCCC[C@@H](C=O)NC(=O)[C@H](CC(C)C)NC(=O)[C@H](CC(C)C)NC(C)=O (Ac-Leu-Leu-[Nle]-aldehyde)
inhibition [1]: inactive

Compound: Cc1c(C)c(-c2ccc(OCc3cn(CCCCCCNC(=O)CCCC[C@@H]4SC[C@@H]5NC(=O)N[C@@H]54)nn3)cc2)c(O)c(O)c1-c1ccc(O)cc1
inhibition [11]: Active
inhibition [12]: inactive
Activity [10]: Active
Activity (RBL-2H3): Active
inhibition [13]: Active

— ChEMBL document CHEMBL2406999, “Vialinin A is a ubiquitin-specific peptidase inhibitor” (Bioorg Med Chem Lett, 2013)
